What follows are compounds tested on Puccinia recondita (assay: Action against Puccinia recondita on wheat (wheat leaf rust)). Settings: 63 ppm; wheat "Frühgold"; sprayed the day after infection; 7 days; untreated plants 75%.
Type: in vivo

Q: How did the “infection (extent of rust fungus development on leaves)” value (“infection” below) turn out when `CNC(=O)/C(=N/OC)c1ccccc1COc1ncc(C(F)(F)F)cc1F` [I-1, α-anti-methoxyimino-N-methyl-2-(3-fluoro-5-trifluoromethyl-2-pyridyloxy)methylphenyl-acetamide] was run?
A: Its value is “no infection”.

Q: How did the “infection” value turn out when `CNC(=O)/C(=N/OC)c1ccccc1COc1ncc(C(F)(F)F)cc1C` [I-2, α-anti-methoxyimino-N-methyl-2-(3-methyl-5-trifluoromethyl-2-pyridyloxy)methyl-phenylacetamide] was run?
A: The value was “no infection”.

Q: Which “infection” value does the source give for `CNC(=O)/C(=N/OC)c1ccccc1COc1nc(Cl)ccc1C(F)(F)F` [I-3] here?
A: Its value is “no infection”.

Q: How did the “infection” value turn out when `CNC(=O)/C(=N/OC)c1ccccc1COc1nc(Cl)c(C(F)(F)F)cc1Cl` [I-6] was run?
A: Its value is “no infection”.

Q: Which “infection” value does the source give for `CNC(=O)/C(=N/OC)c1ccccc1COc1ncc(C(F)F)cc1Cl` [I-8] here?
A: Its value is “no infection”.

What follows are compounds tested on Nephotettix cincticeps (assay: Action against Nephotettix cincticeps (green rice leafhopper), contact action). Settings: treated filter paper dishes, adult leafhoppers, mortality after 24 hours.
Type: in vivo
Description: The active compounds were formulated
a. as a 0.1% solution in acetone or
b. as a 10% emulsion in a mixture of 70% by weight of cyclohexanone, 20% by weight of Nekanil® LN (Lutensol® AP6, wetting agent having emulsifying and dispersing action based on ethoxylated alkylphenols) and 10% by weight of Wettol® EM (nonionic emulsifier based on ethoxylated castor oil)
and diluted in the case of a. with acetone and in the case of b. with water to give the desired concentration.
After the experiments had ended, in each case the lowest concentration was determined at which the compounds still caused an 80 to 100% inhibition or mortality in comparison with untreated control experiments (critical or minimal concentration).
Filter paper dishes (Ø 9 cm) were treated with 1 ml of aqueous preparations of active compounds and subsequently populated with five adult leafhoppers. After 24 hours, the mortality was determined.

Q: For `CNC(=O)/C(=N/OC)c1ccccc1COc1ncc(C(F)(F)F)cc1C` [I-2, α-anti-methoxyimino-N-methyl-2-(3-methyl-5-trifluoromethyl-2-pyridyloxy)methyl-phenylacetamide], which “critical concentration (lowest concentration still causing 80 to 100% inhibition or mortality)” value is on record?
A: Its value is 0.2 mg.

Reference: patent US6372766B1, “Substituted 2-(2′-pyridyloxy)phenylacetamides, as fungicides and pesticides” (priority 1997, dated 2002)
